Experimental data published in the supplement of paper PMC10307832.

Key:
Test in all cases: relative viability (nuclei count vs DMSO), 5 days (fraction); higher = more cells survive
NCI-H1395 = tested on: NCI-H1395
Procedure, shortened: (§1)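 Lung cancer cell lines, seeded in 1536-well plates, were treated the following day by pin tool with a single drug or with five library-drug doses (not always all listed) in √10 steps on top of a fixed anchor-drug dose. Cells were fixed and nuclei stained in one step after 5 days, and nuclei were counted. Relative viability is the nuclei count for treated wells divided by that for vehicle wells, reported as medians of duplicate plates.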

HARA = tested on: HARA
Procedure, shortened: as §1

SK-MES-1 = tested on: SK-MES-1
Procedure, shortened: as §1

NCI-H1944 = tested on: NCI-H1944
Procedure, shortened: as §1

NCI-H2342 = tested on: NCI-H2342
Procedure, shortened: as §1

EPLC-272H = tested on: EPLC-272H
Procedure, shortened: as §1

NCI-H358 = tested on: NCI-H358
Procedure, shortened: as §1

NCI-H661 = tested on: NCI-H661
Procedure, shortened: as §1

COR-L23 = tested on: COR-L23
Procedure, shortened: as §1

HCC-827 = tested on: HCC-827
Procedure, shortened: as §1

NCI-H1792 = tested on: NCI-H1792
Procedure, shortened: as §1

NCI-H1437 = tested on: NCI-H1437
Procedure, shortened: as §1

NCI-H2023 = tested on: NCI-H2023
Procedure, shortened: as §1

HCC-15 = tested on: HCC-15
Procedure, shortened: as §1

HCC-366 = tested on: HCC-366
Procedure, shortened: as §1

LCLC-103H = tested on: LCLC-103H
Procedure, shortened: as §1

UMC-11 = tested on: UMC-11
Procedure, shortened: as §1

NCI-H1975 = tested on: NCI-H1975
Procedure, shortened: as §1

HCC-44 = tested on: HCC-44
Procedure, shortened: as §1

SK-LU-1 = tested on: SK-LU-1
Procedure, shortened: as §1

NCI-H2085 = tested on: NCI-H2085
Procedure, shortened: as §1

HCC-78 = tested on: HCC-78
Procedure, shortened: as §1

COR-L 105 = tested on: COR-L 105
Procedure, shortened: as §1

NCI-H2405 = tested on: NCI-H2405
Procedure, shortened: as §1

CCCCCCCCCCCC1=C(O)C(=O)C=C(O)C1=O [Embelin] + Nc1nc2[nH]cc(CCc3ccc(C(=O)N[C@@H](CCC(=O)O)C(=O)O)cc3)c2c(=O)[nH]1 [Pemetrexed] (partner 0.2 µM)
relative viability (NCI-H1395; first compound 0.08 µM): 0.828
relative viability (NCI-H1395; first compound 0.8 µM): 1.03
relative viability (NCI-H1395; first compound 2.53 µM): 0.856
relative viability (NCI-H1395; first compound 8 µM): 0.585
relative viability (HARA; first compound 0.08 µM): 0.292
relative viability (HARA; first compound 0.8 µM): 0.279
relative viability (HARA; first compound 2.53 µM): 0.256
relative viability (HARA; first compound 8 µM): 0.208
relative viability (SK-MES-1; first compound 0.08 µM): 1.01
relative viability (SK-MES-1; first compound 0.8 µM): 1.05
relative viability (SK-MES-1; first compound 2.53 µM): 0.937
relative viability (SK-MES-1; first compound 8 µM): 0.824
relative viability (NCI-H1944; first compound 0.08 µM): 0.545
relative viability (NCI-H1944; first compound 0.8 µM): 0.754
relative viability (NCI-H1944; first compound 2.53 µM): 0.578
relative viability (NCI-H1944; first compound 8 µM): 0.643
relative viability (NCI-H2342; first compound 0.08 µM): 0.738
relative viability (NCI-H2342; first compound 0.8 µM): 0.806
relative viability (NCI-H2342; first compound 2.53 µM): 0.859
relative viability (NCI-H2342; first compound 8 µM): 0.814
relative viability (EPLC-272H; first compound 0.08 µM): 0.361
relative viability (EPLC-272H; first compound 0.8 µM): 0.302
relative viability (EPLC-272H; first compound 2.53 µM): 0.331
relative viability (EPLC-272H; first compound 8 µM): 0.247
relative viability (NCI-H358; first compound 0.08 µM): 0.217
relative viability (NCI-H358; first compound 0.8 µM): 0.193
relative viability (NCI-H358; first compound 2.53 µM): 0.178
relative viability (NCI-H358; first compound 8 µM): 0.175
relative viability (NCI-H661; first compound 0.08 µM): 0.953
relative viability (NCI-H661; first compound 0.8 µM): 0.936
relative viability (NCI-H661; first compound 2.53 µM): 0.886
relative viability (NCI-H661; first compound 8 µM): 0.896
relative viability (COR-L23; first compound 0.08 µM): 0.196
relative viability (COR-L23; first compound 0.8 µM): 0.196
relative viability (COR-L23; first compound 2.53 µM): 0.201
relative viability (COR-L23; first compound 8 µM): 0.191
relative viability (HCC-827; first compound 0.08 µM): 0.26
relative viability (HCC-827; first compound 0.8 µM): 0.284
relative viability (HCC-827; first compound 2.53 µM): 0.285
relative viability (HCC-827; first compound 8 µM): 0.259
relative viability (NCI-H1792; first compound 0.08 µM): 0.815
relative viability (NCI-H1792; first compound 0.8 µM): 0.817
relative viability (NCI-H1792; first compound 2.53 µM): 1.06
relative viability (NCI-H1792; first compound 8 µM): 0.382
relative viability (NCI-H1437; first compound 0.08 µM): 0.339
relative viability (NCI-H1437; first compound 0.8 µM): 0.306
relative viability (NCI-H1437; first compound 2.53 µM): 0.317
relative viability (NCI-H1437; first compound 8 µM): 0.215
relative viability (NCI-H2023; first compound 0.08 µM): 0.206
relative viability (NCI-H2023; first compound 0.8 µM): 0.244
relative viability (NCI-H2023; first compound 2.53 µM): 0.226
relative viability (NCI-H2023; first compound 8 µM): 0.249
relative viability (HCC-15; first compound 0.08 µM): 0.226
relative viability (HCC-15; first compound 0.8 µM): 0.24
relative viability (HCC-15; first compound 2.53 µM): 0.233
relative viability (HCC-15; first compound 8 µM): 0.207
relative viability (HCC-366; first compound 0.08 µM): 0.161
relative viability (HCC-366; first compound 0.8 µM): 0.149
relative viability (HCC-366; first compound 2.53 µM): 0.151
relative viability (HCC-366; first compound 8 µM): 0.236
relative viability (LCLC-103H; first compound 0.08 µM): 0.49
relative viability (LCLC-103H; first compound 0.8 µM): 0.485
relative viability (LCLC-103H; first compound 2.53 µM): 0.449
relative viability (LCLC-103H; first compound 8 µM): 0.458
relative viability (UMC-11; first compound 0.08 µM): 0.812
relative viability (UMC-11; first compound 0.8 µM): 0.849
relative viability (UMC-11; first compound 2.53 µM): 0.928
relative viability (UMC-11; first compound 8 µM): 0.806
relative viability (NCI-H1975; first compound 0.08 µM): 0.313
relative viability (NCI-H1975; first compound 0.8 µM): 0.286
relative viability (NCI-H1975; first compound 2.53 µM): 0.285
relative viability (NCI-H1975; first compound 8 µM): 0.311
relative viability (HCC-44; first compound 0.08 µM): 0.634
relative viability (HCC-44; first compound 0.8 µM): 0.632
relative viability (HCC-44; first compound 2.53 µM): 0.599
relative viability (HCC-44; first compound 8 µM): 0.699
relative viability (SK-LU-1; first compound 0.08 µM): 0.975
relative viability (SK-LU-1; first compound 0.8 µM): 1.13
relative viability (SK-LU-1; first compound 2.53 µM): 0.962
relative viability (SK-LU-1; first compound 8 µM): 0.988
relative viability (NCI-H2085; first compound 0.08 µM): 0.854
relative viability (NCI-H2085; first compound 0.8 µM): 1.01
relative viability (NCI-H2085; first compound 2.53 µM): 0.87
relative viability (NCI-H2085; first compound 8 µM): 0.871
relative viability (HCC-78; first compound 0.08 µM): 0.924
relative viability (HCC-78; first compound 0.8 µM): 0.895
relative viability (HCC-78; first compound 2.53 µM): 0.982
relative viability (HCC-78; first compound 8 µM): 0.949
relative viability (COR-L 105; first compound 0.08 µM): 1.15
relative viability (COR-L 105; first compound 0.8 µM): 1.21
relative viability (COR-L 105; first compound 2.53 µM): 1
relative viability (COR-L 105; first compound 8 µM): 1.08
relative viability (NCI-H2405; first compound 0.08 µM): 1.09
relative viability (NCI-H2405; first compound 0.8 µM): 1.15
relative viability (NCI-H2405; first compound 2.53 µM): 1.18
relative viability (NCI-H2405; first compound 8 µM): 0.818
